How the values were obtained:
intraocular pressure [1] = test: IOP in Japanese White rabbits after intravitreal administration; type: in vivo; details: FIG. 2
Protocol: (§1) In Japanese White rabbits, IOP was measured at baseline (immediately preceding administration of test article) and at predetermined time points (1, 2, 3, 5, 7, 9, 24 hours; additional time points were 30 and 48 hours after intravitreal administration) after topical (FIG. 1) or intravitreal (FIG. 2) administration of ophthalmic formulations containing drug, vehicle or saline using applanation tonometry. Test articles were topically administered in a 50 microliter volume to the right eye, saline in a 50 microliter volume to the contralateral, left eye. For intravitreal administration, dosing volumes were 20 microliters instead. For each animal, the difference between right eye IOP and left eye IOP was calculated as delta IOP.

intraocular pressure [2] = test: IOP in Japanese White rabbits after topical administration; type: in vivo; details: 50 microliter to right eye, FIG. 1
Protocol: as §1

intraocular pressure [3] = test: IOP in normal C57BL/6J mice after topical administration; type: in vivo; details: 4 microliter to right eye, compared with latanoprost, FIG. 3
Protocol: Additionally, the effect on IOP in normal mice was also assessed. In C57BL/6J mice, IOP was measured at baseline (immediately preceding administration of test article) and at predetermined time points (1, 2, 3, 4, 6, 8, 24 hours) after topical administration of ophthalmic formulations containing drug, vehicle or saline using a TonoLab. Test articles were administered in a 4 microliter volume to the right eye, saline in a 4 microliter volume to the contralateral, left eye. For each animal, the difference between right eye IOP and left eye IOP was calculated as delta IOP.

[4] = target: T1, soluble guanylate cyclase (sGC) (Rattus norvegicus, UniProt P20595); test: Cellular assay, VASP phosphorylation in rat aortic smooth muscle cells with ODQ; type: cell-based; details: phospho-VASP signal, primary rat aortic smooth muscle cells, 10 μM ODQ, 30 min incubation; 50% vs. Bmax; read-out: Cell assay pEC50 (converted)
T1 construct: endogenous in cells; host or cells: primary rat aortic smooth muscle cells
T1 sequence (P20595 1-619): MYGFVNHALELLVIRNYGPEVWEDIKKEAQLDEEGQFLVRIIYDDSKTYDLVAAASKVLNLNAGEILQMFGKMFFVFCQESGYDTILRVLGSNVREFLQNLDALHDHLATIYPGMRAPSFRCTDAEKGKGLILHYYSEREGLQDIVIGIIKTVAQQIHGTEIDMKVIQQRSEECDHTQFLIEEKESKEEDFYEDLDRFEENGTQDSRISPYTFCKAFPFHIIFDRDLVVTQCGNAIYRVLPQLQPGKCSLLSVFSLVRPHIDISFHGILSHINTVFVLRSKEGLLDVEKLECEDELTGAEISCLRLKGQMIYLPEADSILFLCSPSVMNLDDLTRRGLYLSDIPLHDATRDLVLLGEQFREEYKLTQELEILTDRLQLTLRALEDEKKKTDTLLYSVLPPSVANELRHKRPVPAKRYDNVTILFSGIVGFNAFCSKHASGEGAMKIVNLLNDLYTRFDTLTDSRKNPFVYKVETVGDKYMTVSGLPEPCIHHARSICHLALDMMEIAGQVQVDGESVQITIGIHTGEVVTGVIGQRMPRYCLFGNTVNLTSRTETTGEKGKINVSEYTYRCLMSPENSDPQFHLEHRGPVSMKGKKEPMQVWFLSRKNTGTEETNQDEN
T1 sequence (P19686 1-690 partner): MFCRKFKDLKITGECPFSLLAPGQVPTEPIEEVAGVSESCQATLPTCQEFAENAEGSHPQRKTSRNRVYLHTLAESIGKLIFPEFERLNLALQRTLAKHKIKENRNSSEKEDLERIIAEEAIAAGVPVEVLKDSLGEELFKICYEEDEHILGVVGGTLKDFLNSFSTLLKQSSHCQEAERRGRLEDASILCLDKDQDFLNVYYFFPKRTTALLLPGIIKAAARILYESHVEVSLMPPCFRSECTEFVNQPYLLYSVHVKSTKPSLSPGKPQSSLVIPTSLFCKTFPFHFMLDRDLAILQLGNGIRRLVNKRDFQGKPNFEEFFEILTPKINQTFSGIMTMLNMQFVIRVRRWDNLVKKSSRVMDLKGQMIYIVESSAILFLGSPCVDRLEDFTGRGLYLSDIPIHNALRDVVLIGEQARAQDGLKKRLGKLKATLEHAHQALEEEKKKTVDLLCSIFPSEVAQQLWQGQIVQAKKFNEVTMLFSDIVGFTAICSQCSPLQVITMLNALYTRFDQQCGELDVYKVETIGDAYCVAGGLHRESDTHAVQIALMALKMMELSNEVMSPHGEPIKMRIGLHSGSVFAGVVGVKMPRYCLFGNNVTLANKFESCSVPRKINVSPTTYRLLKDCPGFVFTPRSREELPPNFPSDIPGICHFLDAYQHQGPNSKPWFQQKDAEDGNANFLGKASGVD
Protocol: The activity of soluble guanylate cyclase (sGC) was tested in an assay based on measuring phosphorylation of the protein kinase G (PKG) substrate vasodilator-stimulated phosphoprotein (VASP) in rat aortic smooth muscle cells. […] Dimethylsulfoxide (DMSO) vehicle and varying concentrations of the compound to be tested were then added. Following a 30 min incubation at 37° C., media was aspirated and the cells were rinsed with phosphate-buffered saline (PBS) and fixed with 4% formaldehyde in PBS by incubating at room temperature for 20 min. Cells were then washed with PBS and permeabilized for 10 min using 0.1% triton X-100 in PBS. Following PBS rinsing, the cells were blocked for 90 min at room temperature with blocking buffer. The buffer was aspirated and the cells were treated overnight at 4° C. with primary antibody (pSer239-VASP, rabbit polyclonal Ab) diluted 1:500 in blocking buffer. Following three washes with 0.05% Tween 20, the cells were treated for 1 h at room temperature with a fluorescent labeled secondary antibody (IRDye® 800CW Donkey Anti-Rabbit IgG) diluted 1:2500 in blocking buffer with 0.05% Tween 20. Following two washes with PBS, infrared fluorescence was measured using an Odyssey Infrared Imaging System. The activity of a test compound was determined as the pEC50 value which is the concentration able to increase by 50% (vs. Bmax) the phospho-VASP fluorescent signal. Front. Pharmacol., 5 Jul. 2012|doi: 10.3389/fphar.2012.00128, Volume 3 July, 2012, Article number 128.

Row | EC50 [4] [nM] | SMILES | also measured
1 | > 631 | Cc1cc(OCCCC#N)ccc1COc1ccccc1-c1cccc(-n2ncc(C(=O)O)c2C(F)(F)F)n1 [Example 9, 1-(6-(2-((4-(3-cyanopropoxy)-2-methylbenzyl)oxy)phenyl)pyridin-2-yl)-5-(trifluoromethyl)-1H-pyrazole-4-carboxylic acid] | –
2 | 91.2 | COCCCOc1ccc(COc2ccccc2-c2cccc(-n3ncc(C(=O)O)c3C(F)(F)F)n2)c(C)c1 [Example 10, 1-(6-(2-((4-(3-methoxypropoxy)-2-methylbenzyl)oxy)phenyl)pyridin-2-yl)-5-(trifluoromethyl)-1H-pyrazole-4-carboxylic acid] | –
3 | 151 | COCCCOc1ccc(COc2ccccc2-c2cccc(-n3ncc(C(=O)O)c3C(F)(F)F)n2)c(F)c1 [Example 6, 1-(6-(2-((2-fluoro-4-(3-methoxypropoxy)benzyl)oxy)phenyl)pyridin-2-yl)-5-(trifluoromethyl)-1H-pyrazole-4-carboxylic acid] | –
4 | 5.89 | Cc1cc(OCCCn2ccc(C(F)(F)F)n2)ccc1CCc1ccccc1-c1cccc(-n2ncc(C(=O)O)c2C(F)(F)F)n1 [Example 3, 1-(6-(2-(2-methyl-4-(3-(3-(trifluoromethyl)-1H-pyrazol-1-yl)propoxy)phenethyl)phenyl)pyridin-2-yl)-5-(trifluoromethyl)-1H-pyrazole-4-carboxylic acid] | –

Row | SMILES | EC50 [4] [nM] | also measured
5 | Cc1cc(OCCCC(F)(F)F)ccc1CCc1ccccc1-c1cccc(-n2ncc(C(=O)O)c2C(F)(F)F)n1 [Example 1, 1-(6-(2-(2-methyl-4-(4,4,4-trifluorobutoxy)phenethyl)phenyl)pyridin-2-yl)-5-(trifluoromethyl)-1H-pyrazole-4-carboxylic acid] | 14.5 | effect on IOP (delta IOP) (intraocular pressure [1]; 20 microliters to right eye): long-lasting and effective reduction in IOP; duration of IOP reduction (intraocular pressure [1]): at least 48 hours; effect on IOP (delta IOP) (intraocular pressure [2]): dose-dependently and effectively decreased IOP; effect on IOP (delta IOP) (intraocular pressure [3]): lowered IOP with efficacy similar to latanoprost, but without the initial hypertensive spike
6 | O=C(O)c1cnn(-c2cccc(-c3ccccc3OCc3ccc(OCCCC(F)(F)F)cc3F)n2)c1C(F)(F)F [Example 5, 1-(6-(2-((2-fluoro-4-(4,4,4-trifluorobutoxy)benzyl)oxy)phenyl)pyridin-2-yl)-5-(trifluoromethyl)-1H-pyrazole-4-carboxylic acid] | 60.3 | –
7 | Cc1cc(OCCCC(F)(F)F)ccc1COc1ccccc1-c1cccc(-n2ncc(C(=O)O)c2C(F)(F)F)n1 [Example 11, 1-(6-(2-((2-methyl-4-(4,4,4-trifluorobutoxy)benzyl)oxy)phenyl)pyridin-2-yl)-5-(trifluoromethyl)-1H-pyrazole-4-carboxylic acid] | 102 | –

Reference: patent publication US20160214956A1, “NOVEL SOLUBLE GUANYLATE CYCLASE ACTIVATORS AND THEIR USE” (GLAXOSMITHKLINE INTELLECTUAL PROPERTY DEVELOPMENT LIMITED, priority 2013, published 2016)
